PubChem BioAssay (NCI)
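Five concentrations, 48 hours, 96-well plates. TGI is the concentration that stops growth completely.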

Columns and labels:
Assay in all cases: NCI-60 cell line screen, 48 h
CAKI-1 renal = tested on: CAKI-1 renal
HCC-2998 colon = tested on: HCC-2998 colon
HCT-116 colon = tested on: HCT-116 colon
HL-60(TB) leukemia = tested on: HL-60(TB) leukemia
MALME-3M melanoma = tested on: MALME-3M melanoma
NCI-H460 lung = tested on: NCI-H460 lung
NCI/ADR-RES ovarian = tested on: NCI/ADR-RES ovarian
OVCAR-3 ovarian = tested on: OVCAR-3 ovarian
RXF 393 renal = tested on: RXF 393 renal
SF-295 CNS = tested on: SF-295 CNS
SK-MEL-2 melanoma = tested on: SK-MEL-2 melanoma
SK-MEL-28 melanoma = tested on: SK-MEL-28 melanoma
SN12C renal = tested on: SN12C renal
SR leukemia = tested on: SR leukemia
SW-620 colon = tested on: SW-620 colon
T-47D breast = tested on: T-47D breast
UACC-257 melanoma = tested on: UACC-257 melanoma
UACC-62 melanoma = tested on: UACC-62 melanoma

Measured: TGI

COc1ccccc1N(CN1C(=O)CCC1C(=O)O)C(C)=O (centres undefined)
> 100 µM: all assays above

Nc1cccnc1NCC1(CO)CCCC1
> 100 µM: all assays above

OC1(c2ccccc2)C2CCN(CC2)C1CN1CCOCC1 (centres undefined)
> 100 µM: all assays above
